US6683069B1, “Methods and compositions for reducing UV-induced inhibition of collagen synthesis in human skin” (Regents of the University of Michigan, priority 1998, dated 2004)

Columns and labels:
Type I procollagen mRNA = assay: In situ hybridization for Type I procollagen mRNA in biopsies of retinoid-pretreated, UV-exposed human skin; assay type: in vivo; settings: 0.1% topical
Protocol: (§1) We tested whether retinoids, in particular all-trans retinoic acid, would have any effect on the loss of procollagen mRNA and/or the procollagen proteins in human skin after exposure to UV radiation. (Unless otherwise noted, the retinoic acid used in the experiments described herein was all-trans.) Separate areas of skin from each of our volunteers were treated with either 0.1% retinoic acid in vehicle or with vehicle alone; the vehicle was composed of a mixture of ethanol and polyethylene glycol in a 70:30 volumetric ratio. Thereafter, these areas of skin were exposed to 2 MEDs (typically) of UV radiation and then biopsied at specific times after the exposure; the biopsies were analyzed as described previously. The site of the volunteers' skin to be exposed to UV radiation was treated prior to UV exposure with either the all-trans retinoic acid or the control vehicle. […]
(§2) In Situ Hybridization: Digoxigenin-containing sense and antisense riboprobes to detect human type I and Type III procollagen RNA (mRNA) were synthesized with the use of T3 and T7 ribonucleic acid polymerases. […] Hybridization signals were detected immunohistochemically with the use of alkaline phosphatase-conjugated antidigoxigenin antibody.

[1] = system: Type I procollagen protein; assay: Immunohistological staining for Type I procollagen protein in biopsies of retinoid-pretreated, UV-exposed human skin; assay type: in vivo; settings: 0.1% topical
Protocol: as §1, with “previously.” for “previously. The site of the volunteers' skin to be exposed to UV radiation was treated prior to UV exposure with either the all-trans retinoic acid or the control vehicle.”
(§3) Immunohistology: Immunihistology of Type I and Type III pN collagens was performed as has been described by Griffiths, C. […] Type I pN collagen was detected with mouse monoclonal IgG1 antibody (SP1.D8; available from Univ. of Iowa Dept. of Biological Sciences Developmental Studies Hybridoma Bank, Iowa City, Iowa) raised against the aminopropeptide region of human Type I procollagen (Foellmer, H. G., et al., Euro. J. Biochm., 134:183-189 (1983)). Type III pN collagen was detected with affinity-purified rabbit polyclonal antibody to aminopropeptide of Type III procollagen (identical to that used for Western analysis). […]

[2] = system: Type I procollagen and pN collagen precursor protein; assay: Western analysis of Type I procollagen protein and pN precursor protein in retinoic acid-pretreated, UV-exposed human skin; assay type: in vivo; settings: 0.1% topical, FIG. 12
Protocol: We tested whether retinoids, in particular all-trans retinoic acid, would have any effect on the loss of procollagen mRNA and/or the procollagen proteins in human skin after exposure to UV radiation. (Unless otherwise noted, the retinoic acid used in the experiments described herein was all-trans.) Separate areas of skin from each of our volunteers were treated with either 0.1% retinoic acid in vehicle or with vehicle alone; the vehicle was composed of a mixture of ethanol and polyethylene glycol in a 70:30 volumetric ratio. Thereafter, these areas of skin were exposed to 2 MEDs (typically) of UV radiation and then biopsied at specific times after the exposure; the biopsies were analyzed as described previously. The site of the volunteers' skin to be exposed to UV radiation was treated prior to UV exposure with either the all-trans retinoic acid or the control vehicle. […] Nevertheless, it should be understood that a period of pretreatment with retinoid more than eight and less than twenty-four hours before UV exposure may likely be sufficient to prevent the reduction in collagen biosynthesis we have observed. Furthermore, it should be understood that in all of the following examples treatment with a retinoid (e.g., “retinoic acid-treated”) or the vehicle (e.g.,. “vehicle-treated”) should each be understood as pretreatment 24 hours before UV exposure. […]
(§4) Western analysis of proteins. Type I procollagen and pN collagen precursor protein, as well as Type III procollagen were detected in skin extracts by Western analysis as described by G. J. Fisher et al. (in “Immunological identification and functional quantitation of retinoic acid and retinoid X receptor proteins in human skin,” J. Biol. Chem., 269:20629-20635 (1994)).
(§5) Immunoreactive proteins were visualized by enhanced chemiluminescence detection and quantified by laser densitometry, or by enhanced chemifluorescence detection and quantified by a Storm imager (Molecular Dynamics, Sunnyvale, Calif.).

[3] = system: Type III procollagen mRNA; assay: In situ hybridization for Type III procollagen mRNA in biopsies of retinoid-pretreated, UV-exposed human skin; assay type: in vivo; settings: 0.1% topical, pretreatment 24 h before UV; FIG. 13D
Protocol: as §1, §2

[4] = system: Type III procollagen protein; assay: Immunohistological staining for Type III procollagen protein in biopsies of retinoid-pretreated, UV-exposed human skin; assay type: in vivo; settings: 0.1% topical, pretreatment 24 h before 2 MEDs UV, biopsy 24 h after exposure; FIG. 14D
Protocol: as §1, with “previously.” for “previously. The site of the volunteers' skin to be exposed to UV radiation was treated prior to UV exposure with either the all-trans retinoic acid or the control vehicle.”
as §3

[5] = system: Type III procollagen protein and pN collagen precursor protein; assay: Western analysis of Type III procollagen protein and pN precursor protein in retinoic acid-pretreated, UV-exposed human skin; assay type: in vivo; settings: 0.1% topical, FIG. 15
Protocol: as §1, with “previously.” for “previously. The site of the volunteers' skin to be exposed to UV radiation was treated prior to UV exposure with either the all-trans retinoic acid or the control vehicle.”
as §4, §5

soluble collagen = assay: Soluble collagen (hydroxyproline content) in retinoid-pretreated, UV-exposed human skin in vivo; settings: 0.1% topical
Protocol: We tested whether retinoids, in particular all-trans retinoic acid, would have any effect on the loss of procollagen mRNA and/or the procollagen proteins in human skin after exposure to UV radiation. (Unless otherwise noted, the retinoic acid used in the experiments described herein was all-trans.) Separate areas of skin from each of our volunteers were treated with either 0.1% retinoic acid in vehicle or with vehicle alone; the vehicle was composed of a mixture of ethanol and polyethylene glycol in a 70:30 volumetric ratio. Thereafter, these areas of skin were exposed to 2 MEDs (typically) of UV radiation and then biopsied at specific times after the exposure; the biopsies were analyzed as described previously. The site of the volunteers' skin to be exposed to UV radiation was treated prior to UV exposure with either the all-trans retinoic acid or the control vehicle. […] Nevertheless, it should be understood that a period of pretreatment with retinoid more than eight and less than twenty-four hours before UV exposure may likely be sufficient to prevent the reduction in collagen biosynthesis we have observed. Furthermore, it should be understood that in all of the following examples treatment with a retinoid (e.g., “retinoic acid-treated”) or the vehicle (e.g.,. “vehicle-treated”) should each be understood as pretreatment 24 hours before UV exposure.
We also assayed the biopsies from our volunteers for soluble collagen (measured as hydroxyproline content) in vehicle- and retinoid-treated skin, both before and after UV exposure. […] After UV exposure, the vehicle-treated skin (VEH+UV) had only about 40% of the soluble collagen as was present prior to exposure. The retinoid-treated area (RA+UV) still had reduced amounts of soluble collagen when compared with skin prior to UV exposure, yet the levels were almost twice what was found in the vehicle-treated/UV-exposed skin.
As mentioned above, the area of the volunteers' skin to be treated with a retinoid prior to UV exposure was pretreated 24 hours prior to exposure. We pretreated certain volunteer's sun-protected skin with 0.1% all trans retinoic acid 8 hours prior to exposure to 2 MEDs of UV radiation. […] Thus, as mentioned above, to prevent UV-induced loss of collagen synthesis using a retinoid, pretreatment 24 hours before exposure yields the desired prophylactic effect, whereas pretreatment 8 hours before exposure yields no significant prophylaxis.
Hydroxyproline Analysis: hydroxyproline analysis using the Amino Acid Analyzer Model 420H (Applied Biosystems, Foster City, Calif.) automates precolumn phenylthiocarbamyl-amino acid (PTC-AA) analysis. The Model 420H analyzer first hydrolyzes proteins to liberate free amino acids. Once hydrolyzed, the free amino acids are derivatized with phenylisothiocynanate (PITC) to form PTC-AA derivatives. A reverse-phase column in a temperature-controlled oven separates the PTC-AAs. Concentration of hydroxyproline in the skin extract was determined based upon a hydroxyproline standard.

[6] = pretreatment 24 h before 2 MEDs UV, biopsy 24 h after exposure

Structure (SMILES): CC1=C(/C=C/C(C)=C/C=C/C(C)=C/C(=O)O)C(C)(C)CCC1 [all-trans retinoic acid]
- Type I procollagen mRNA expression in fibroblasts vs vehicle-treated skin, prior to UV exposure (Type I procollagen mRNA; 24 h after treatment, no UV, FIG. 10B vs 10A): essentially the same in both
- Type I procollagen mRNA expression after UV exposure (Type I procollagen mRNA; pretreatment 24 h before UV, FIG. 10D): does not appear to evidence any loss in the mRNA signalling
- Type I procollagen protein staining vs vehicle-treated skin, prior to UV exposure ([1]; no UV, FIG. 11B vs 11A): no appreciable difference
- Type I procollagen protein staining after UV vs before UV exposure ([1]; pretreatment 24 h before 2 MED UV, biopsy 24 h after exposure, FIG. 11D): comparable, though slightly reduced
- Amounts of Type I procollagen and pN precursor protein vs vehicle-treated skin, unexposed ([2]; no UV, vehicle normalized to 1.0): essentially the same amounts
- Type I procollagen protein after UV, relative to control [2, 6]: greater than 80 % of the control
- pN collagen precursor protein (Type I) after UV, relative to control [2, 6]: greater than 80 % of the control
- Reduction in expression of Type III procollagen mRNA after UV exposure [3]: little, if any, reduction
- Type III procollagen protein staining after UV vs prior to UV exposure [4]: almost the same pattern and intensity of staining
- Amounts of Type III procollagen protein and pN precursor protein vs vehicle-treated skin, prior to UV exposure ([5]; no UV): essentially the same amounts
- Amounts of Type III procollagen protein and pN precursor protein after UV vs control and retinoic acid-treated areas prior to exposure ([5]; pretreatment 24 h before 2 MEDs UV, RA+UV): essentially the same amounts
- Soluble collagen (hydroxyproline content) vs vehicle-treated skin, prior to UV exposure (soluble collagen; 24 h pretreatment, no UV, FIG. 16): about the same
- Soluble collagen (hydroxyproline content) vs vehicle-treated skin, without UV exposure (soluble collagen; after 8 hours, no UV, FIG. 17): the same
- Soluble collagen (hydroxyproline content) 24 hours after UV exposure vs vehicle-treated skin (soluble collagen; pretreatment 8 hours before 2 MEDs UV, FIG. 17): essentially the same
- Soluble collagen (hydroxyproline content) after UV, relative to vehicle-treated/UV-exposed skin (soluble collagen; pretreatment 24 h before UV, RA+UV, FIG. 16): almost twice
- Prevention of UV-induced reduction in collagen biosynthesis (soluble collagen; pretreatment 24 hours before UV exposure): a reduction in collagen biosynthesis was prevented
- Prevention of UV-induced reduction in collagen synthesis (soluble collagen; pretreatment eight hours before UV exposure): did not appear to significantly prevent reduction in collagen synthesis
